Reference: publication PMC3858832 (Journal of Controlled Release, 2013)
Values belong to the substance of their own block, whether it stands above or below them. Where no end group is shown, it is not given here.

Assays:
A549 cells [1] = test: Luciferase reporter gene transfection of A549 cells; type: cell-based, human; details: light units per well
[2] = test system: GAPDH expression in A549 cells; test: siRNA-mediated silencing of GAPDH expression in A549 cells (Western blot densitometry), with or without BALF; type: cell-based, human; details: Western blot densitometry 72 h post transfection
Experimental: (§3) The abilities of the peptides to successfully mediate specific silencing of GAPDH expression were then assessed in A549 cells (Fig. 2B), MCF-7 cells (Fig. 2C), HUVEC (Fig. 3A), THP-1 cells differentiated into macrophages (Fig. 4A) and undifferentiated THP-1 cells in suspension (Fig. 4B). Specific reductions in expression of GAPDH were assessed by densitometry of Western blots where the effects of administering siRNA targeting GAPDH was compared with that of non-targeting siRNA on the expression of GAPDH as endogenous reporter and β-actin as internal toxicity/specificity control (Figs. 2D, 3B, 4C).
To test the suitability of the peptides for future pulmonary delivery applications in vivo the ability of the peptides to mediate silencing of GAPDH expression in A549 cells was repeated in the presence of bronchoalveolar lavage fluid (BALF) as a model for airway surface liquid (ASL) (Fig. 2E/F).
(§4) siRNA transfection - A549, MCF-7 and THP-1 cells, were transfected with peptide/siRNA
complexes containing 50 or 100 pmol GAPDH siRNA or negative control siRNA/well in 6-
well plates, giving a final siRNA concentration of 50 or 100 nM. Cells were seeded at the
following densities; A549 and MCF-7 - 1 × 10^5 cells per well, THP-1 in suspension – 5 ×
10^5 cells per well, differentiated THP-1 – 1 × 10^6 cells per well.

[3] = Far-UV circular dichroism pH titration, midpoint of conformational transition (pKα); type: physicochemical; details: far-UV CD intensity at 220 nm vs pH; peptide 30-50 μM in 5 mM Tris amine titrated with HClO4; 37 °C (310 K); average of two or more independent experiments
Excerpt: Therefore, we first investigated whether reducing hydrogen-bonding opportunities at the Dap side chain amine would improve its tolerance by cells in culture. Alkylation of the Dap primary amine may however also impact on the pKa. […] Measurement of side chain pKa in a peptide undergoing a conformational transition associated with a change in aggregation state is hindered by the large amounts of material required for potentiometric analyses and the unfavourable line broadening observed in NMR for self-associated peptides. Instead, we have observed the cooperative, pH responsive, change of conformation of cationic amphipathic peptides in aqueous solution using far-UV CD (Supp. Fig. 1B/C). LADap (Sup. Fig. 1B) and LADap(Me2) (Supp. Fig. 1C) adopt an α-helix conformation when dissolved in neutral or slightly basic aqueous solution and, when titrated with acid, an increasingly disordered conformation is observed. The CD intensity at 220 nm is considered indicative of α-helix content and can be plotted as a function of pH (Supp. Fig. 1D/E). […] Although other interactions may be expected to contribute to the pKα when compared with the pKa, an increase of the same magnitude (~ 0.6 pH units) is seen in both the pKα for the Dap rich peptide and the pKa for the model compound following dimethylation (Supp. Fig. 1D/E; Table 1).
Far-UV CD spectra were obtained for LAH4-L1, LAH6-L1 and the Dap and mono-methyl Dap containing analogues in aqueous Tris amine buffer at various pH (Supp. Fig. 4). […] For LAH4-L1, the pKα = 5.29 ± 0.25 and is in agreement with previous work while pKα = 4.45 ± 0.25 for LAH6-L1 is substantially higher than that reported recently for LAH6 peptides of greater hydrophobicity. The response of LADap4-L1 at 6.64 ± 0.08 is substantially more basic than the histidine-containing analogue. […]
Circular dichroism experiments - Peptides were dissolved in 5 mM Tris amine without pH adjustment at a final concentration of between 30 and 50 μM. The samples were titrated down by adding 0.3% or 1% (v/v) HClO4 solution in micro-litre amounts. ClO4- is optically […]
by HClO4 makes a significant improvement on spectral quality in the far-UV region. CD spectra were acquired on a Chirascan™ Spectrometer (Applied Photophysics, Leatherhead, UK) with samples maintained at 310 K. For pH titration experiments, far-UV CD spectra were obtained with the samples titrated down by adding 0.3% or 1% (v/v) HClO4 solution in micro-litre amounts. Spectra were recorded from 260 to 180 nm using a 0.5 mm path length and were processed using Chirascan software where a spectrum of the peptide free solution was subtracted and Savitzky-Gorlay smoothing with a convolution width of 5 points applied.
Results for all CD assay measurements are expressed as an average of two or more independent repeated experiments. […]
The pellets, containing lipid vesicles and associated peptides were transferred to Bruker 4 mm MAS rotors for NMR measurements. Lipid vesicles were also prepared in this way in the absence of peptide.
Solid-state NMR - 2H quadrupole echo experiments for samples containing either POPC-d31 or POPS-d31 were performed at 61.46 MHz on a Bruker Avance 400 NMR

MCF-7 cells = test: Luciferase reporter gene transfection of MCF-7 cells; type: cell-based, human; details: 1 μg luciferase plasmid/well, 48 h
A549 cells [4] = test: Protein content per well as measure of cytotoxicity during transfection of A549 cells; type: cell-based, human; details: luciferase plasmid transfection, compared with LADap(Me2)
Excerpt: The pKα of LADap(Me2) is raised by N,N-dimethylation and is likely to be too high to substantially aid endosomal release; dimethylation nevertheless has beneficial effects on the nucleic acid transfer properties of the resulting peptide. […] However, the protein content of the cells, commonly used to calibrate the amount of specific luciferase activity, can be misleading. […] Accordingly, the transfection efficacies of LADap and Lipofectamine 2000™ (4:1) in this experiment are substantially overstated. When luciferase activity is plotted per well (Supp. Fig. 1H), not only is the robust and non-toxic transfection efficacy of LAH4-L1 evident, offering a 13.0 fold improvement over Lipofectamine 2000™, but also the advantages of LADap(Me2) over LADap are clear. The luciferase delivery efficacy of LADap(Me2) however was insufficient for it to be considered for siRNA delivery and further modifications were conceived.
Luciferase Activity (light units/10 s)
Luciferase Activity (light units/10 s/mg protein)
Mean Residue Ellipticity @220 nm (deg cm […]
Supplementary Figure 1. […] The midpoint of the conformational transition is determined as 6.22 ± 0.16 for LADap4 (D) and 6.80 ± 0.11 for LADap(Me2)4 (E). […] Lipofectamine and LADap4 are toxic to A549 cells but the N,N-dimethylation of Dap (LADap(Me2)4) reduces toxicity and increases gene transfer efficacy despite the high pKα determined in […]

[5] = Analytical HPLC retention time as indicator of peptide hydrophobicity; type: physicochemical; details: 5-90% water/acetonitrile gradient, Waters Symmetry C8, 5 μm, 7.8 x 100 mm, Abs 215 nm
Experimental: (§1) A further six N,N-dimethyl-Dap variant, LADap(Me2)6-A1 was prepared in an attempt to circumvent this by reducing the hydrophobicity by substituting four leucines with alanine.
Supplementary Figure 5. Analytical HPLC of three Dap rich peptides with differing levels of alkylation. A 5-90% water/acetonitrile gradient system was used using a Waters Symmetry™ C8, 5 μm, 7.8 x 100 mm column. The N-methylation of LADap-6-L1 to LADap(Me)6-L1 reduces the retention time of the peptide marginally however N,N-dimethylation to LADap(Me2)6-L1 causes a substantial shift to longer retention time and is consistent with the insolubility of this latter peptides in aqueous media. A fourth peptide, […]
alanine residues did improve hydrophobicity but not sufficiently to make the peptide readily soluble in […]
(§2) (1 picture or pasted object on this page, not shown here)

[6] = Solubility in aqueous media / 50% trifluoroethanol; type: physicochemical
Experimental: as §1
Supplementary Figure 6. far-UV CD spectrum of LADap(Me2)6-L1 in 50% TFE.
A further six N,N-dimethyl-Dap variant, LADap(Me2)6-A1 was prepared in an attempt to circumvent this by reducing the hydrophobicity by substituting four leucines with alanine. While a small improvement in […]
spectrum was obtained (Supp. Fig. 6) which indicated the desired α-helix conformation would theoretically be obtainable if it could be delivered to the endosomal membrane.
as §2

[7] = test system: GAPDH expression in suspension monocyte THP-1 cells; test: siRNA-mediated silencing of GAPDH expression in suspension monocyte THP-1 cells (Western blot densitometry); type: cell-based, human; details: siRNA at 20 or 40 nM, peptide/siRNA 10:1 w/w, Western blot 72 h, three independent experiments
Experimental: as §3
Cells were transfected with peptide/siRNA complexes containing GAPDH siRNA (+) or negative control siRNA (−) and β-actin served as an internal control for equal protein loading and off target effects. Densitometry results are shown for as an average of three independently repeated experiments (C). […] Vectors were prepared as for siRNA transfection experiments and the peptide to siRNA weight ratio was 10:1 in all cases.
The cells were transfected with Lipofectamine 2000™ at 2 μl per
well under the same conditions.
as §4
complexes containing 50 or 100 pmol GAPDH siRNA or negative control siRNA/well in 6- […]
The bound secondary antibodies were detected with ECL™ Western blotting detection […]

- pKα at 37 °C (midpoint of the main conformational transition) [3]: 5.29 ± 0.25
Substance: KKALLAHALHLLALLALHLAHALKKA-NH2 [LAH4-L1, reference compound]
- fold improvement in luciferase activity per well over Lipofectamine 2000 (4:1) (A549 cells [1]): 13.0 fold
- reduction of GAPDH expression (silencing) ([2]; 50% BALF): 29.4 ± 11.8%
- reduction of GAPDH expression (silencing) ([2]; Opti-MEM I): 73.5 ± 3.7%

- pKα at 37 °C (midpoint of the main conformational transition) [3]: 6.64 ± 0.08
Substance: KKALLAXALXLLALLALXLAXALKKA-NH2 [LADap4-L1, LAH4-L1 derivative comprising four Dap residues]

- pKα at 37 °C (midpoint of the main conformational transition) [3]: 6.62 ± 0.04
Substance: KKALLAXALXLLALLALXLAXALKKA-NH2 [LADap(Me)4-L1, LAH4-L1 derivative comprising four N-methylated Dap residues]
- fold improvement in luciferase expression over LADap4-L1 (MCF-7 cells): 4.1 fold
- fold improvement in luciferase expression over LAH4-L1 (MCF-7 cells): 2.0 fold

Substance: KKHLLAHLLHLLALLALHLLHALKHK-NH2 [LAH6-L1]
- pKα at 37 °C (midpoint of the main conformational transition) [3]: 4.45 ± 0.25

- pKα at 37 °C (midpoint of the main conformational transition) [3]: 5.33
Substance: KKLAHALHLLALLWLHLAHALKKA-NH2 [reference compound]

- pKα at 37 °C (midpoint of the main conformational transition) [3]: 6.80 ± 0.11
Substance: KKLAXALXLLALLWLXLAXALKKA-NH2 [LADap(Me2), 24-residue cationic amphipathic peptide with four N,N-dimethyl-Dap residues]

- pKα at 37 °C (midpoint of the main conformational transition) [3]: 6.22 ± 0.16
Substance: KKLAXALXLLALLWLXLAXALKKA-NH2 [LADap, 24-residue cationic amphipathic peptide with four Dap residues]
- cytotoxicity by protein content of wells (A549 cells [4]): notably more toxic

- HPLC retention time (measure of hydrophobicity) [5]: 28.37 min
- solubility in aqueous media [6]: insufficiently soluble
Substance: KKXLLAXALXALLALLAXLAXALKXK-NH2 [LADap(Me2)6-A1, more hydrophilic six N,N-dimethyl-Dap variant, four leucines substituted with alanine]

- pKα at 37 °C (midpoint of the main conformational transition) [3]: 5.67 ± 0.17
Substance: KKXLLAXLLXLLALLALXLLXALKXK-NH2 [LADap6-L1, 26-residue peptide with six Dap residues]

- solubility in 50% trifluoroethanol ([6]; 50% trifluoroethanol): soluble in 50% trifluoroethanol
- solubility in aqueous media [6]: insoluble in aqueous media
Substance: KKXLLAXLLXLLALLALXLLXALKXK-NH2 [LADap(Me2)6-L1, 26-residue peptide with six N,N-dimethyl-Dap residues]

Substance: KKXLLAXLLXLLALLALXLLXALKXK-NH2 [LADap(Me)6-L1, 26-residue peptide with six N-methyl Dap residues]
- reduction of GAPDH expression [7]: 92.3 ± 3.7%
- reduction of GAPDH expression (silencing) ([2]; Opti-MEM I): 88.0 ± 6.8%
